From US20080167284A1, “Hair And/Or Scalp Care Compositions Incorporating Visnadin” (priority 2005, published 2008) come the findings set out here.

pEC50: −log10 of the molar value. Bounds are passed on as bounds.

Test [1] deals with T1, Cannabinoid Receptor 1 (CB1R), human recombinant CB1 (Homo sapiens, UniProt P21554).
T1 construct: purchased Perkin-Elmer; host or cells: HEK293
Kind of test: CB1R radioligand experiment on membranes from HEK293 cells over-expressing human recombinant CB1. It counts as binding. The note with it: human recombinant CB1, radioligand [3H]CP-55,490, n=3. The method, then: (§1) Visnadin was evaluated for its ability to activate Cannabinoid Receptor 1 (CB1R) and Cannabinoid Receptor 2 (CB2R).
CB1R experiments were performed using membranes from HEK293 cells over-expressing human recombinant CB1, as described by the manufacturer (Perkin-Elmer) and using [3H]CP-55,490 as the radioligand.
(§2) Data of active compounds are expressed in Ki (mM) and are means±SEM of n=3 determinations.
(§3) The values that are stated for each of the compounds is an EC50 value. This is defined as the molar concentration of an agonist, which produces 50% of the maximum possible response for that agonist. The values documented are in micromolar units.

In test [2] the target is T2, Cannabinoid Receptor 2 (CB2R), human recombinant CB2 (Homo sapiens, UniProt P34972).
T2 construct: purchased Perkin-Elmer; host or cells: HEK293
T2 sequence (P34972 whole entry): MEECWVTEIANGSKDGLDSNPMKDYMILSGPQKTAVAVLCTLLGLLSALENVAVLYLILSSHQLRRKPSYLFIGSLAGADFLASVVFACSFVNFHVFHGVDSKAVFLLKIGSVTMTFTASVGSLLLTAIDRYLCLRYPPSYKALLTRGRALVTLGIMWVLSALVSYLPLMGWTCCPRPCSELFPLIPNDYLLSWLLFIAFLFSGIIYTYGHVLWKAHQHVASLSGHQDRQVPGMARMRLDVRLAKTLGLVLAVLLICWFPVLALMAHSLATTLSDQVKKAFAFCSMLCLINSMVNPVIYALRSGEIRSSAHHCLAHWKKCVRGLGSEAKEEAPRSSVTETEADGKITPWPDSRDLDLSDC
The test can be described thus: CB2R radioligand experiment on membranes from HEK293 cells over-expressing human recombinant CB2. The note with it: human recombinant CB2, radioligand [3H]CP-55,495, n=3. The format is binding. The protocol:
as §1
CB2R experiments were performed using membranes from HEK293 cells over-expressing human recombinant CB2, as described by the manufacturer (Perkin-Elmer), and using [3H]CP-55,495 as the radioligand.
as §2, §3

T1 sequence (P21554 whole entry): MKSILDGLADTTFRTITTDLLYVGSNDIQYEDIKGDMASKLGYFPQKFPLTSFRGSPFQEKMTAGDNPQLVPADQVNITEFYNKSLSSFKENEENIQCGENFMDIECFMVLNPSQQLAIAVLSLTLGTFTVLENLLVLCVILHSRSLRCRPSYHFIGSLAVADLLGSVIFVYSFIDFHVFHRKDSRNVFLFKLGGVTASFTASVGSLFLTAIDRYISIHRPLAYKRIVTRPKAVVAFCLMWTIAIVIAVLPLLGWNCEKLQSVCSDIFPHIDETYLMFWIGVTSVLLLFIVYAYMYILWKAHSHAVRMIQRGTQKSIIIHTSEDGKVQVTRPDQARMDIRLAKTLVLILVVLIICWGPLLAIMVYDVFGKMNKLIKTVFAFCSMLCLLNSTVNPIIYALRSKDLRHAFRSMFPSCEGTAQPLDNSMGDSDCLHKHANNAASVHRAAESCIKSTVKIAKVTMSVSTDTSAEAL

Broadly, the pEC50 is the negative decadic logarithm of the EC50, by convention in mol/L. Take `CCC(C)C(=O)O[C@@H]1[C@H](OC(C)=O)c2c(ccc3ccc(=O)oc23)OC1(C)C` (some centres unmarked) [visnadin]: the pEC50 in test [1] was less than 4.60; in test [2], 4.85.
